Laboratory results as given in article PMC6721765, “Synthesis of Daidzein Glycosides, α-Tocopherol Glycosides, Hesperetin Glycosides by Bioconversion and Their Potential for Anti-Allergic Functional-Foods and Cosmetics” (Molecules, 2019).
Like-named read-outs stand apart in the source and are kept apart here.

How the values were obtained:
[1] = tested on: rat peritoneal mast cells; experiment: Inhibition of compound 48/80-induced histamine release from rat peritoneal mast cells; format: cell-based; conditions: Mast cell
Description: The %inhibition of hesperetin 3′-β-glucoside (9) and hesperetin 7-β-glucoside (10) was higher than that of hesperetin (8). […] The inhibitory activity toward histamine release of hesperetin 7-β-gentiobioside (12) was stronger than hesperetin diglucoside 11. The anti-allergic activities were examined at pH 7.4 and 37 °C according to the reported methods. The pH and temperature of the reaction mixture may have an effect on anti-allergic activities. Effects of pH and temperature on anti-allergic activities of the obtained glycosides should be investigated and reported on in the near future.
The effects of daidzein, α-tocopherol, hesperetin, and their glycosides on compound 48/80-induced histamine release from rat peritoneal mast cells were examined as follows. Peritoneal mast cells were collected from the abdominal cavities of rats (Male Wistar rats, Nippon SLC) and purified to a level higher than 95%. The purified mast cells were suspended in a physiological buffered solution (PBS) containing 145 mM NaCl, 2.7 mM KCl, 1.0 mM CaCl2, 5.6 mM glucose, and 20 mM 4-(2-hydroxyethyl)-1-piperazineethanesulfonic acid (HEPES) (pH 7.4) to give approximately 10^4 mast cells/mL. Cell viability was always greater than 90% as judged by the trypan blue exclusion test. Mast cells were preincubated with the test compound (1 μM) for 15 min at 37 °C, and subsequently exposed to compound 48/80 at 0.35 μg/mL. Histamine release was determined by a fluorometric assay, and was expressed as a percentage of total histamine.

[2] = target: Mushroom tyrosinase (EC 1.14.18.1); experiment: Tyrosinase assay (dopachrome formation at 475 nm); format: biochemical; conditions: L-DOPA or L-tyrosine as substrate, pH 6.8, 30 °C, mean ± standard deviation from triplicate experiments, read-out: Tyrosinase Inhibitory Activity IC50
Description: Mushroom tyrosinase (EC 1.14.18.1) (Sigma-Aldrich Chemical Co., St. Louis, MO, USA) was used for the tyrosinase assay, with either L-DOPA or L-tyrosine as a substrate. In spectrophotometric experiments, enzyme activity was taken as the initial velocity (Vi) monitored by observing dopachrome formation at 475 nm with a UV spectrophotometer at 30 °C. All samples were dissolved in ethanol at 10 mM. First, 200 μL of a 2.7 mM L-tyrosine or 5.4 mM L-DOPA aqueous solution was mixed with 2687 μL of 0.25 M phosphate buffer (pH 6.8). Next, 100 μL of the sample solution and 13 μL of the same phosphate buffer solution containing mushroom tyrosinase (144 units) were added to the mixture.

[3] = test compound 1 μM, preincubated 15 min at 37 °C, pH 7.4, compound 48/80 at 0.35 μg/mL, Male Wistar rat peritoneal mast cells, read-out: Histamine Release-Inhibiting Activity / %inhibition
[4] = Rattus norvegicus, pH 7.4, read-out: Histamine Release-Inhibiting Activity / %inhibition

| Structure (SMILES) | IC50 [2] [µM] | inhibition at 1 µM [1, 3] [%] | inhibition at 1 µM [1, 4] [%] |
| --- | --- | --- | --- |
| O=c1c(-c2ccc(O[C@@H]3O[C@H](CO)[C@H](O)[C@H](O)[C@H]3O)cc2)coc2cc(O)ccc12 [Compound 4, daidzein 4′-β-galactoside] | 125 ± 41 | 70 | – |
| O=c1c(-c2ccc(O)cc2)coc2cc(O)ccc12 [Compound 1, daidzein] | 392 ± 88 | 58 | – |
| O=c1c(-c2ccc(O)cc2)coc2cc(OC3OC(COC4OC(CO)C(O)C(O)C4O)C(O)C(O)C3O)ccc12 (stereo not drawn) [Compound 3, daidzein 7-β-gentiobioside] | 280 ± 33 | 67 | – |
| Cc1c(C)c2c(c(C)c1O[C@@H]1O[C@H](CO)[C@H](O)[C@H](O)[C@H]1O)CC[C@@](C)(CCC[C@H](C)CCC[C@H](C)CCCC(C)C)O2 [Compound 7, α-tocopherol 6-β-galactoside] | 54 ± 25 | 82 | – |
| Cc1c(C)c2c(c(C)c1O)CC[C@@](C)(CCC[C@H](C)CCC[C@H](C)CCCC(C)C)O2 [Compound 6, α-tocopherol] | 510 ± 108 | 61 | – |
| O=c1c(-c2ccc(O)cc2)coc2cc(O[C@@H]3O[C@H](CO)[C@H](O)[C@H](O)[C@H]3O)ccc12 [Compound 5, daidzein 7-β-galactoside] | 102 ± 39 | – | 76 |
| COc1ccc([C@@H]2CC(=O)c3c(O)cc(O)cc3O2)cc1O [Compound 8, hesperetin] | 437 ± 76 | 38 | – |
| O=c1c(-c2ccc(O)cc2)coc2cc(OC3OC(CO)C(O)C(O)C3O)ccc12 (stereo not drawn) [Compound 2, daidzein 7-β-glucoside] | 303 ± 45 | – | 62 |
| O=c1c(O)c(-c2ccc(O)cc2)oc2cc(O)cc(O)c12 [Kaempferol, reference compound] | – | 80 | – |

The next lines start with results.

| IC50 [2] [µM] | Structure (SMILES) | inhibition at 1 µM [1, 3] [%] | inhibition at 1 µM [1, 4] [%] |
| --- | --- | --- | --- |
| 355 ± 32 | COc1ccc(C2CC(=O)c3c(O)cc(O)cc3O2)cc1OC1OC(CO)C(O)C(O)C1O (stereo not drawn) [Compound 9, hesperetin 3′-β-glucoside] | 40 | – |
| 176 ± 35 | COc1ccc(C2CC(=O)c3c(O)cc(OC4OC(CO)C(O)C(O)C4O)cc3O2)cc1OC1OC(CO)C(O)C(O)C1O (stereo not drawn) [Compound 11, hesperetin 3′,7-β-diglucoside] | 63 | – |
| 139 ± 14 | COc1ccc(C2CC(=O)c3c(O)cc(OC4OC(COC5OC(CO)C(O)C(O)C5O)C(O)C(O)C4O)cc3O2)cc1O (stereo not drawn) [Compound 12, hesperetin 7-β-gentiobioside] | 69 | – |
| 318 ± 27 | COc1ccc(C2CC(=O)c3c(O)cc(OC4OC(CO)C(O)C(O)C4O)cc3O2)cc1O (stereo not drawn) [Compound 10, hesperetin 7-β-glucoside] | 45 | – |
